The values that follow come from ChEMBL document CHEMBL5465560, “Selectivity Literature for EUbOPEN Chemogenomic Library” (2024).

For assay [1], the target named is T1, Ephrin type-B receptor 4 (Homo sapiens) (UniProt P54760).
T1 sequence (whole entry): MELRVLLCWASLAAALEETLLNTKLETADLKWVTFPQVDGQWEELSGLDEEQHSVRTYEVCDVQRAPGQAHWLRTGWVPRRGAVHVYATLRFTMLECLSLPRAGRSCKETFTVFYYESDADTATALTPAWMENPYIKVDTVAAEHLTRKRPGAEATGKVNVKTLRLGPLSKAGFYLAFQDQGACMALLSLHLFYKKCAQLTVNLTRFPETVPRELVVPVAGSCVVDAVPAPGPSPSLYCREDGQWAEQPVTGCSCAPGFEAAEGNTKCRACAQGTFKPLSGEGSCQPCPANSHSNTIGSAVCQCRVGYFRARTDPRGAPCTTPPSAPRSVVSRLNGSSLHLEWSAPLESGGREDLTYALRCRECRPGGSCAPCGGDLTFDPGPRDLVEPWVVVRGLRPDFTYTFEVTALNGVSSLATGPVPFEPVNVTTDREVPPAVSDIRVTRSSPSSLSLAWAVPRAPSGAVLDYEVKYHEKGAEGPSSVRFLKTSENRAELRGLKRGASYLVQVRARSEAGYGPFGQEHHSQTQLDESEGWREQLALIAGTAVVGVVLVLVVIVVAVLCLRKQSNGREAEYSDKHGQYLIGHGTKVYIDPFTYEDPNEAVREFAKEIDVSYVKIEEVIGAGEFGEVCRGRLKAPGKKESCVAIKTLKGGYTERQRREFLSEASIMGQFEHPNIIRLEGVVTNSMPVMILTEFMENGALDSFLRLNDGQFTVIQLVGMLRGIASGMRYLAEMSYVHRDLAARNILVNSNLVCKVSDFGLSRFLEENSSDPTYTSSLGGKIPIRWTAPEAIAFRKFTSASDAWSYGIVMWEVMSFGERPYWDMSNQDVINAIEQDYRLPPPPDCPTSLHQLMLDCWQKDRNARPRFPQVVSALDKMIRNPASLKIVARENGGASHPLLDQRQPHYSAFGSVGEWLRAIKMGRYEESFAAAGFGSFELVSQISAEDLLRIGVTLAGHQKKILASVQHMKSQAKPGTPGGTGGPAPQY
The assay is described as follows: Selectivity interaction (SelectScreen profiling (Invitrogen)) EUB0000607a EPHB4. The settings on record: at 2 µM.

In assay [2] the target is Calcium/calmodulin-dependent protein kinase kinase 2 (Homo sapiens) (UniProt Q96RR4). The assay is described as follows: Selectivity interaction (ActivX KiNativ screen (kinase selectivity in THP-1 cell lysates)) EUB0000639a CAMKK2. In kind it is subcellular. The settings on record: lysate, at 0.04 µM.
Assay [3] deals with Cyclin-dependent kinase 5/CDK5 activator 1 (Homo sapiens) (UniProt Q00535+Q15078). Nature of the assay: Selectivity interaction (Kinase panel (Invitrogen)) EUB0000639a CDK5. In kind it is protein-complex assay. The settings on record: at 200 nM.
Assay [4] has as its target Tyrosine-protein kinase CSK (Homo sapiens) (UniProt P41240). Nature of the assay: Selectivity interaction (ActivX KiNativ screen (kinase selectivity in THP-1 cell lysates)) EUB0000639a CSK. In kind it is subcellular. To be noted: lysate, at 0.04 µM.
Assay [5] addresses T2, Protein kinase C iota type (Homo sapiens) (UniProt P41743).
T2 sequence (whole entry): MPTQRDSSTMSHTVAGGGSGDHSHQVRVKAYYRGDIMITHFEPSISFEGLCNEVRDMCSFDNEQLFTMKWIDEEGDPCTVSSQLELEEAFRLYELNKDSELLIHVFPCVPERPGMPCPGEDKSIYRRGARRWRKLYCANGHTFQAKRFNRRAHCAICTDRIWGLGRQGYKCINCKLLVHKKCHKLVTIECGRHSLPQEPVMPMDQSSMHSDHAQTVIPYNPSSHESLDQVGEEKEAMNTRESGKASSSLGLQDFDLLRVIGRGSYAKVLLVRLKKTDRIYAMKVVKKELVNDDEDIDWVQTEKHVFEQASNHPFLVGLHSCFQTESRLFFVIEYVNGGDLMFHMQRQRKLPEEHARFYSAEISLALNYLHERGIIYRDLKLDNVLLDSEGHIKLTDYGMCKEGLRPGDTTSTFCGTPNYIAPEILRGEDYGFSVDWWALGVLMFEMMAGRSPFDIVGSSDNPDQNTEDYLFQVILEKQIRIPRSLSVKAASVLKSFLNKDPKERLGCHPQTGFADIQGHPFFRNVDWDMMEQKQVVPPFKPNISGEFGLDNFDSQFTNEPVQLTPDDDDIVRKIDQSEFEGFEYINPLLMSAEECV
Nature of the assay: Selectivity interaction (Kinase panel (Invitrogen)) EUB0000639a PRKCI. To be noted: at 200 nM.

Assay [6] deals with Platelet-derived growth factor receptor beta (Homo sapiens, UniProt P09619). The assay is described as follows: Selectivity interaction (Upstate Kinase Profiler service (Millipore)) EUB0000056c PDGFRB. To be noted: at 1 µM.
Assay [7] concerns the target Tyrosine-protein kinase receptor Tie-1 (Homo sapiens) (UniProt P35590). The assay is described as follows: Selectivity interaction (KinomeScan (DiscoverX)) EUB0000229b TIE1. The settings on record: at 10 µM.
For assay [8], the target named is T3, PAN2-PAN3 deadenylation complex subunit PAN3 (Homo sapiens) (UniProt Q58A45).
T3 sequence (whole entry): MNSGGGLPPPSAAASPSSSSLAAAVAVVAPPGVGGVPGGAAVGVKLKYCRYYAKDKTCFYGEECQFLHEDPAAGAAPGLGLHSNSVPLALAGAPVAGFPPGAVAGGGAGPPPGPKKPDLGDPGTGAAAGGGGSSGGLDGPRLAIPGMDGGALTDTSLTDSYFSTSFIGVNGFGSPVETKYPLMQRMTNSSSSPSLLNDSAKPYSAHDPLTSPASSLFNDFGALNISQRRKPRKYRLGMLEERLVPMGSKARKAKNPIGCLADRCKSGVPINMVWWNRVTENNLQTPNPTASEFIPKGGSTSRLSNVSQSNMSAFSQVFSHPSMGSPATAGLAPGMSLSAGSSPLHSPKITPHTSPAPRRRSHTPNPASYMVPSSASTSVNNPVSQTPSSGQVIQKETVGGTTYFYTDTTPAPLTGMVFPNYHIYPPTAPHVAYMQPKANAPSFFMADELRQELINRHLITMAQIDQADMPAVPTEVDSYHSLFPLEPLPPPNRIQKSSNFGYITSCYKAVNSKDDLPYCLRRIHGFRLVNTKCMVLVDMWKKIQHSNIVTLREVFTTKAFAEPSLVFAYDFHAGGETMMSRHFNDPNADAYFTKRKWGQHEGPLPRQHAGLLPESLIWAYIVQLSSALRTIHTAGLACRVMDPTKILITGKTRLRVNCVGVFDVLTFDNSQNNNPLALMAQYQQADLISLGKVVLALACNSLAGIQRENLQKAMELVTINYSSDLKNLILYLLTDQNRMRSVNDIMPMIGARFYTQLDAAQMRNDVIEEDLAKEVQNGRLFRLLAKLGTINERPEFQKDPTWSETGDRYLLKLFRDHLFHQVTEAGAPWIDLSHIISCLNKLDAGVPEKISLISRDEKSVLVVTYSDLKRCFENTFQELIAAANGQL
Nature of the assay: Selectivity interaction (Kinase panel (KiNativ target engagement assay in Jurkat cells)) EUB0001635a PAN3. The format is cell-based. To be noted: Selectivity number of off-targets 0.0, Selectivity number of targets 233.0, Source Knowledge https://www.sciencedirect.com/science/article/pii/S2451945619300674?via%3Dihub, at 1 µM.

Sequence of Calcium/calmodulin-dependent protein kinase kinase 2 (Homo sapiens) (Q96RR4 2-588 limits assumed): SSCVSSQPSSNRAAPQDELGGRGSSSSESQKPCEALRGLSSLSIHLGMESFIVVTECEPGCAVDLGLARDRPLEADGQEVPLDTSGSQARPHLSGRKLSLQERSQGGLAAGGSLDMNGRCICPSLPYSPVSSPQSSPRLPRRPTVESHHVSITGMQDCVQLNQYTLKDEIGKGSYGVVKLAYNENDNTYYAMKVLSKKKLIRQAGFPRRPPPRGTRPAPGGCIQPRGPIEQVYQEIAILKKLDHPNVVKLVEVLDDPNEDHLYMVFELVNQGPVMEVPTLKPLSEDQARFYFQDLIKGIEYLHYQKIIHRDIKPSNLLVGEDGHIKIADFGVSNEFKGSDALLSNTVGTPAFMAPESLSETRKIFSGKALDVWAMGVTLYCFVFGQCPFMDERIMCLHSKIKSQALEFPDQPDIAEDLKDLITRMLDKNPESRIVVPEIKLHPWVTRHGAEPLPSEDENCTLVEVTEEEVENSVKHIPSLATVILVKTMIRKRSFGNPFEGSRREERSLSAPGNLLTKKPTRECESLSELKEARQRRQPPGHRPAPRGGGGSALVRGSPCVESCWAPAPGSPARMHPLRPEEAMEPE
Sequence of Tyrosine-protein kinase CSK (Homo sapiens) (P41240 2-450 limits assumed): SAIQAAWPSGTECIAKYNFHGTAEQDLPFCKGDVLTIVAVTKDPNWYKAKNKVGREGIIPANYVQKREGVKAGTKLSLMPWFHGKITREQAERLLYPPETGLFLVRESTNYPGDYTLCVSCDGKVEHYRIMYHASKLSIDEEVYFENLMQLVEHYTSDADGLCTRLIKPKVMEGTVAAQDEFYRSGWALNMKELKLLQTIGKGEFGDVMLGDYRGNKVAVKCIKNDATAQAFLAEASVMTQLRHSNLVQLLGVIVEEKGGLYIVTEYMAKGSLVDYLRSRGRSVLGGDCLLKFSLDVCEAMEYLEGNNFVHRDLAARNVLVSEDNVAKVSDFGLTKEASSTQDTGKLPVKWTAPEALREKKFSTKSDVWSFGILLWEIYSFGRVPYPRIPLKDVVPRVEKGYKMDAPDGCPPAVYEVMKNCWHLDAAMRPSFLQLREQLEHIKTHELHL
Sequence of Cyclin-dependent kinase 5/CDK5 activator 1 (Homo sapiens) (Q00535 whole entry): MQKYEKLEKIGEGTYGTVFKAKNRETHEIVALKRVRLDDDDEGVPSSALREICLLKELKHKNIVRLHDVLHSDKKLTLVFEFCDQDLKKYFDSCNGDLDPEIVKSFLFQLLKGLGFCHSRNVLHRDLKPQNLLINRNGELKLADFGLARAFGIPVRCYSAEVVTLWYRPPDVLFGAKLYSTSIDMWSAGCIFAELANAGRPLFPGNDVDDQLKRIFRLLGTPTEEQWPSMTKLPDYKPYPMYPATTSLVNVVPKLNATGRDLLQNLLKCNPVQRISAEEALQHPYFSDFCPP
Sequence of Cyclin-dependent kinase 5/CDK5 activator 1 (Homo sapiens) (Q15078 99-307 partner limits assumed): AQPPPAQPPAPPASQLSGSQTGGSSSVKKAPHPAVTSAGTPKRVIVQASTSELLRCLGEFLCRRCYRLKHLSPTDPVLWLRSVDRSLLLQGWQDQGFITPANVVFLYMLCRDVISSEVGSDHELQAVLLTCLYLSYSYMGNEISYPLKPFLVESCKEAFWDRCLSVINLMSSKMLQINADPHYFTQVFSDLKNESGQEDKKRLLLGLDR
Sequence of Platelet-derived growth factor receptor beta (P09619 whole entry): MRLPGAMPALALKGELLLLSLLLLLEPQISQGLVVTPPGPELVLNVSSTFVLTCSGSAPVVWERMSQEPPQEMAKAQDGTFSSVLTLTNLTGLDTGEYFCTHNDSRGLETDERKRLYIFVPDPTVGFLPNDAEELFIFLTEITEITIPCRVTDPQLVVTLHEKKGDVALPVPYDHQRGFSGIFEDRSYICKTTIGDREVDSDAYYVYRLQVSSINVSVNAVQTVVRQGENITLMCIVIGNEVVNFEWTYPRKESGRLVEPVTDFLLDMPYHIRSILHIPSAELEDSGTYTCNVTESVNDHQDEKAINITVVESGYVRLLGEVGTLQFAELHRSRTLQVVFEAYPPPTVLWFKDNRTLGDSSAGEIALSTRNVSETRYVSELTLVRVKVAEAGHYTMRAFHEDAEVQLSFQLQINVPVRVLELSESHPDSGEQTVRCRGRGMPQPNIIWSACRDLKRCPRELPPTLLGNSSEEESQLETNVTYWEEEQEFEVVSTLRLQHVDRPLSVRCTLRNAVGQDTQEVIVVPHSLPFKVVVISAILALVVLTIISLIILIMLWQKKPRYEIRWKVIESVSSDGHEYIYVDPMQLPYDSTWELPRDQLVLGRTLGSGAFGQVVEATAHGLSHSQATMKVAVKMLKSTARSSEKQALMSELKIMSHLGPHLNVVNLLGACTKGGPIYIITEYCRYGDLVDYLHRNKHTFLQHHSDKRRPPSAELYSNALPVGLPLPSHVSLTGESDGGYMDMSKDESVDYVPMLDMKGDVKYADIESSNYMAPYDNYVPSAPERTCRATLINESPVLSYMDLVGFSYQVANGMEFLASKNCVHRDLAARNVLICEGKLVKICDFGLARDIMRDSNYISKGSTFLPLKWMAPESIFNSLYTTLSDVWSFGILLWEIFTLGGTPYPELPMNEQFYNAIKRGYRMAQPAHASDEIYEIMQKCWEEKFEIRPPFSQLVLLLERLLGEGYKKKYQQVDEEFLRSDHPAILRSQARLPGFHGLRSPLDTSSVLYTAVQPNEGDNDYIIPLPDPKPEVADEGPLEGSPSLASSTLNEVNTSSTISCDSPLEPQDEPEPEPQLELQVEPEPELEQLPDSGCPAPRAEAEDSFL
Sequence of Tyrosine-protein kinase receptor Tie-1 (Homo sapiens) (P35590 whole entry): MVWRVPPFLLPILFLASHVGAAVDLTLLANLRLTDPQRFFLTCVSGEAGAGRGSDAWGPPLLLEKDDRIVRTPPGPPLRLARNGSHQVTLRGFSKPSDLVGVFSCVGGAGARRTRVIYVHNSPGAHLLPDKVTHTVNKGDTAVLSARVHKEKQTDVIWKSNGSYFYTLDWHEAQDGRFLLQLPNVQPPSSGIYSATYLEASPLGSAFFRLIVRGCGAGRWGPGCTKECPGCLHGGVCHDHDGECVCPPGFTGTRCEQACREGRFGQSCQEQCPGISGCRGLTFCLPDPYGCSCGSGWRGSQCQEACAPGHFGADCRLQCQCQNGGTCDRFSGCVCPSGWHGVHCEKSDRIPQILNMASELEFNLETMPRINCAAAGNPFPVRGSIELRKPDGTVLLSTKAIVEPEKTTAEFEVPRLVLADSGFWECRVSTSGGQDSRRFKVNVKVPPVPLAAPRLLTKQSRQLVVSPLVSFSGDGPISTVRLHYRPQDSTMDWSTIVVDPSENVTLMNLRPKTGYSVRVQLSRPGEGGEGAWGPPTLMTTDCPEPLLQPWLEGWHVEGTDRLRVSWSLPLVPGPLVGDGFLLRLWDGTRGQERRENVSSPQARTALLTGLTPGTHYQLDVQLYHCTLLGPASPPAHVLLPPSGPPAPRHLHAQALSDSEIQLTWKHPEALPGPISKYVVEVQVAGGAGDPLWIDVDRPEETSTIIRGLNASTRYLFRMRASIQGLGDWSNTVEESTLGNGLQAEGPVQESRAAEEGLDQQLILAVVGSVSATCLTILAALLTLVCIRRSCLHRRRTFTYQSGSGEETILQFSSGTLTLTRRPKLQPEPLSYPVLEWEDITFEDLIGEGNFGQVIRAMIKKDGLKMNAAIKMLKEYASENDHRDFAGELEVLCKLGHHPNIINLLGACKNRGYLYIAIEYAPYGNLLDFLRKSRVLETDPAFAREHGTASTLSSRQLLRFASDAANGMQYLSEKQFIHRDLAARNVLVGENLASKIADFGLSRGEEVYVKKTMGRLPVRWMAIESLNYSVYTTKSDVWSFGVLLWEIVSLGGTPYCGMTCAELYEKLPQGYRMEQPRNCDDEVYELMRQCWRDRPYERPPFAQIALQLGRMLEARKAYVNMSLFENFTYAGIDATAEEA

In the case of `CNC(=O)Nc1ccc(-c2nc(N3CC4CCC(C3)O4)c3cnn(C4CCC5(CC4)OCCO5)c3n2)cc1`, the % of inhibition in assay [1] is -4%.

Regarding `CC[C@@H]1[C@H](F)C(=O)N[C@@H]1COc1nccc2cc(C(N)=O)c(OC)cc12` [ZIMLOVISERTIB], the % of inhibition was -13% in assay [2], 2.19% in assay [3], 7.9% in assay [4] and 5.1% in assay [5].

As for `Cc1ccc(-c2ccc3c(ccc4sc5c(c43)NC[C@@H](C)NC5=O)n2)cn1`, in assay [6], the % of inhibition was -4%.

The molecule `COc1cc(N(C)c2ccnc3ccc(C(F)(F)F)cc23)cc(OC)c1OC` showed a % binding in assay [7] of 75%.

`C=CC(=O)Nc1ccc(C(=O)Nc2[nH]nc3c2CN(C(=O)N[C@H](CN(C)C)c2ccccc2)C3(C)C)cc1`: the % of engagement in assay [8] was -3.3%.
